Measured values taken from patent US12448388B2, “PRMT5 inhibitors and uses thereof” (Gilead Sciences, Inc., priority 2023, dated 2025).
Where “and” joins values, the source holds several entries; their conditions need not be identical. Equal values may be shown once.

How the values were obtained:
[1] = tested on: Symmetric Di-methyl Arginine (SDMA) signal (PRMT5 inhibition) in HCT116 MTAP-deleted cells; assay: Symmetric di-methyl arginine image-based high content screen assay (SDMA assay), HCT116 MTAP-deleted; assay type: cell-based; conditions: for EC50: Homo sapiens, HCT-116, HCT116 MTAP-deleted, class symbols
Outline: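 Read-out is imaging of per-cell mean SDMA immunofluorescence (Alexa 488), with cells segmented by DAPI. Cells, MTAP-deleted or wild-type HCT116, were exposed to compound for 3 days at 37 °C before fixation. EC50 derived by 4-parameter non-linear logistic regression.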

[2] = PK data (IV/PO) in Sprague-Dawley rat; assay type: in vivo; conditions: for half-life / clearance / Vd / bioavailability: Sprague-Dawley, rat, in vivo; for half-life / clearance / Vd: iv; for clearance: read-out: Observed CL (converted); for Vd: read-out: Vss; for bioavailability: po
[3] = PK data (IV/PO) in Beagle dog; conditions: in vivo; for clearance: read-out: Observed CL (converted); for Vd: read-out: Vss; for bioavailability: PO 0.5 mg/Kg
hERG = target: T1, hERG (Homo sapiens, UniProt Q12809); assay: hERG assay (automated patch clamp, QPatch HT); assay type: cell-based; conditions: human, HEK293 cells stably expressing hERG, * = accurate hERG measurement may be limited by compound solubility
T1 construct: host or cells: HEK293
T1 sequence (Q12809 whole entry): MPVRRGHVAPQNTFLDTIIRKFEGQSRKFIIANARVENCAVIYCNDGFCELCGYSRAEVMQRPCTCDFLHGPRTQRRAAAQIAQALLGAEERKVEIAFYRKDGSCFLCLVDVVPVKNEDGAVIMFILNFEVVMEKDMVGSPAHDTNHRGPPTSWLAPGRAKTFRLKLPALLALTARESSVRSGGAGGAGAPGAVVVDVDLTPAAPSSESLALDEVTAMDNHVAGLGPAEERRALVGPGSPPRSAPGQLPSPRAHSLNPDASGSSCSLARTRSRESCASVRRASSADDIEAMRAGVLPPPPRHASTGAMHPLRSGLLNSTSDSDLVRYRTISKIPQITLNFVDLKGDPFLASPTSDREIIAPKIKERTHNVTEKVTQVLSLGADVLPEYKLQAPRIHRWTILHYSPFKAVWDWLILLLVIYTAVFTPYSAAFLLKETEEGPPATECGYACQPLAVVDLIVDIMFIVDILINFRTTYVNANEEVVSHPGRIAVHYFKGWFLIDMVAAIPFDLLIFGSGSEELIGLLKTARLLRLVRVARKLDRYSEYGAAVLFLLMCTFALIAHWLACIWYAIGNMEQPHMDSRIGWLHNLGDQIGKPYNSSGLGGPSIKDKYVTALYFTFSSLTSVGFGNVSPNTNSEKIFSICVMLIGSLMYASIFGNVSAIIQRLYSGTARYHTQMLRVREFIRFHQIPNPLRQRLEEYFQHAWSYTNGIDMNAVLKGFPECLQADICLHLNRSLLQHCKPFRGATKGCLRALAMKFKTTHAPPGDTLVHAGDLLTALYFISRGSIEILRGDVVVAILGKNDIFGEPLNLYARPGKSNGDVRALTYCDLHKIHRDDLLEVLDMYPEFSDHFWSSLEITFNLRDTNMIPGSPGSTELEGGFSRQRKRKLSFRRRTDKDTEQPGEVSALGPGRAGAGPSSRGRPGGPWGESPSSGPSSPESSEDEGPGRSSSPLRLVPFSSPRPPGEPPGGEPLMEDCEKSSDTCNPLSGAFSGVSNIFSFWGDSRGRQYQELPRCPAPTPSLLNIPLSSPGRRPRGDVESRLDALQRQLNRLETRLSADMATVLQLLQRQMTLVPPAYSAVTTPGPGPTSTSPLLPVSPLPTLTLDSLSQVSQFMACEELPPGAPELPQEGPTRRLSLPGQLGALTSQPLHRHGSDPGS
Protocol: Cell lines and cell culture: The HEK293 cell line stably expressing the hERG ion channel was provided from Charles River laboratories. Cells were maintained in tissue culture incubators per Charles River Laboratories SOP. Stocks were maintained in cryogenic storage. HEK293 cells were stably transfected with hERG cDNA.
Automated Patch Clamp Procedures: In preparation for a recording session, intracellular solution was loaded into the intracellular compartments of the QPlate and cell suspension was pipetted into the extracellular compartments. After establishment of a whole-cell configuration, membrane currents were recorded using up to 48 parallel patch clamp amplifiers in the QPatch HT® system. The current records were sampled at 2000 Hz and low-pass Bessel filtered at 400 Hz.
Valid whole-cell recordings met the following criteria: • 1. Membrane resistance ≥200 MΩ. • 2. Leak current 25% channel current or subtracted.
hERG Test Procedures: Onset and block of hERG current was measured using a stimulus voltage pattern consisting of a 500 ms prepulse to −40 mV (leakage subtraction), a 2-second activating pulse to +40 mV followed by a 2-second test pulse to −40 mV. The pulse pattern was repeated continuously at 10 s intervals from a holding potential of −80 mV. Peak tail current was measured during the −40 mV test pulse. Leakage current was calculated from the current amplitude evoked by the −40 mV prepulse and subtracted from the total membrane current record.
Data Analysis: Data acquisition and analysis were performed using the QPatch Assay Software (Sophion Bioscience A/S, Denmark). Steady state was defined by the limiting constant rate of change with time (linear time dependence). The steady state before and after test article application were used to calculate the percentage of current inhibited at each concentration. Run down, a time-dependent reduction of current amplitude, may be compensated for in the QPatch Assay Software using standard system tools. Concentration-response data was fit to an equation of the following form: […]
Where [Test] is the concentration of test compound, IC50 is the concentration of the test compound producing half-maximal inhibition, N is the Hill coefficient and % Block is the percentage of current inhibited at each concentration of the test article. Nonlinear least squares fits will be solved with the Solver add-in for Excel 2000 or later (Microsoft, Redmond, WA).

[4] = HCT116 WT vs HCT116 MTAP-deleted
[5] = HCT116 WT versus HCT116 MTAP-deleted

Structure (SMILES) | EC50 selectivity [1, 4] | EC50 [1] [nM] | half-life ([2]; 0.33 mg/kg, IV 0.33 mg/Kg) [h] | clearance ([2]; 0.33 mg/kg, IV 0.33 mg/Kg) [mL/min/kg] | Vd ([2]; 0.33 mg/kg, IV 0.33 mg/Kg) [L/kg] | EC50 selectivity [1, 5] | other results
Nc1nc2cnc(C(=O)N3CC[C@H]4C[C@@H]3c3ccc(OC(F)(F)F)cc3O4)cc2n2cncc12 [Ff-685, (4-aminoimidazo[1,5-a]pyrido[3,4-e]pyrazin-8-yl)((2S,6R)-9-(trifluoromethoxy)-3,4-dihydro-2H-2,6-methanobenzo[b][1,5]oxazocin-5(6H)-yl)methanone] | 108 | 1 to 5 |  |  |  |  | 
Cc1ncn2c1c(N)nc1cnc(C(=O)N3CCC[C@@H]4Oc5cc(C(F)(F)F)ccc5[C@@H]43)cc12 [Ff-499, (4-amino-3-methylimidazo[1,5-a]pyrido[3,4-e]pyrazin-8-yl)((4aS,9bS)-7-(trifluoromethyl)-3,4,4a,9b-tetrahydrobenzofuro[3,2-b]pyridin-1(2H)-yl)methanone] |  |  | 3.1 | 8.17 | 1.72 |  | 
Nc1nc2cc(F)c(C(=O)N3CCC[C@@H]4Oc5cc(C(F)(F)F)ccc5[C@@H]43)cc2n2cncc12 [Ff-104, (4-amino-7-fluoroimidazo[1,5-a]quinoxalin-8-yl)((4aS,9bS)-7-(trifluoromethyl)-3,4,4a,9b-tetrahydrobenzofuro[3,2-b]pyridin-1(2H)-yl)methanone] |  |  | 3.7 |  |  |  | T1/2 ([2]; IV 0.33 mg/Kg, 0.33 mg/kg): 3.77 h; % F ([2]; PO 1.66 mg/Kg, 1.66 mg/kg): 67% and 98%; half-life ([3]; IV 0.25 mg/Kg): 3.9 h; clearance ([3]; IV 0.25 mg/Kg): 6.5 mL/min/kg; Vd ([3]; IV 0.25 mg/Kg): 1.78 L/kg; half-life ([3]; IV 0.5 mg/Kg): 8.7 h; clearance ([3]; IV 0.5 mg/Kg): 3.17 mL/min/kg; Vd ([3]; IV 0.5 mg/Kg): 2 L/kg; bioavailability [3]: 68%
C[C@H]1CN(C(=O)c2cc3c(cc2F)nc(N)c2cncn23)[C@H]2c3ccc(C(F)(F)F)cc3C[C@H]2O1 (single isomer, unassigned) [Ff-81] |  |  |  |  |  |  | half-life ([2]; 1 mg/kg, IV 1 mg/Kg): 4.7 h; clearance ([2]; 1 mg/kg, IV 1 mg/Kg): 4 mL/min/kg; Vd ([2]; 1 mg/kg, IV 1 mg/Kg): 1.65 L/kg; half-life ([3]; IV 0.5 mg/Kg): 7.9 h; clearance ([3]; IV 0.5 mg/Kg): 4.33 mL/min/kg; bioavailability [3]: 134%
Nc1nc2cnc(C(=O)N3CC[C@H]4C[C@@H]3c3ccc(C(F)(F)F)c(F)c3O4)cc2n2cncc12 [Ff-684, (4-aminoimidazo[1,5-a]pyrido[3,4-e]pyrazin-8-yl)((2S,6R)-10-fluoro-9-(trifluoromethyl)-3,4-dihydro-2H-2,6-methanobenzo[b][1,5]oxazocin-5(6H)-yl)methanone] | 121 | ≤ 1 |  |  |  |  | 
Cc1ncc2c(N)nc3cnc(C(=O)N4CCC[C@@H]5Oc6cc(OC(F)(F)F)ccc6[C@@H]54)cc3n12 [Ff-340, (4-amino-1-methylimidazo[1,5-a]pyrido[3,4-e]pyrazin-8-yl)((4aS,9bS)-7-(trifluoromethoxy)-3,4,4a,9b-tetrahydrobenzofuro[3,2-b]pyridin-1(2H)-yl)methanone] |  | ≤ 1 | 5.3 | 8.83 | 3.2 | 135 | 
Nc1nc2ccc(C(=O)N3CCC[C@@H]4Oc5cc(C(F)(F)F)ccc5[C@@H]43)cc2n2cncc12 [Ff-111, (4-aminoimidazo[1,5-a]quinoxalin-8-yl)((4aS,9bS)-7-(trifluoromethyl)-3,4,4a,9b-tetrahydrobenzofuro[3,2-b]pyridin-1(2H)-yl)methanone] |  | ≤ 1 | 5.9 | 2.5 | 1.29 | 258 | 

Now from value to compound, other results behind:

EC50 selectivity [1, 4] | EC50 [1] [nM] | half-life ([2]; 0.33 mg/kg, IV 0.33 mg/Kg) [h] | clearance ([2]; 0.33 mg/kg, IV 0.33 mg/Kg) [mL/min/kg] | Vd ([2]; 0.33 mg/kg, IV 0.33 mg/Kg) [L/kg] | EC50 selectivity [1, 5] | Structure (SMILES) | other results
114 | ≤ 1 | 6 | 3.5 | 1.73 |  | Nc1nc2cnc(C(=O)N3CCC[C@@H]4Oc5cc(OC(F)(F)F)cc(F)c5[C@@H]43)cc2n2cncc12 (single isomer, unassigned) [Fg-55] | bioavailability ([2]; 1.66 mg/kg, PO 1.66 mg/Kg): 99%; half-life ([3]; IV 0.25 mg/Kg): 6 h; clearance ([3]; IV 0.25 mg/Kg): 4.33 mL/min/kg; Vd ([3]; IV 0.25 mg/Kg): 1.8 L/kg
 | ≤ 1 |  |  |  | 117 | C[C@@H]1CN(C(=O)c2cc3c(cc2F)nc(N)c2cncn23)[C@H]2c3ccc(OC(F)(F)F)cc3C[C@H]2O1 (single isomer, unassigned) [Ff-183] | 
87 | ≤ 1 |  |  |  |  | [2H]C1([2H])CC[C@@H]2Oc3cc(C(F)(F)F)ccc3[C@@H]2N1C(=O)c1cc2c(cn1)nc(N)c1cncn12 [Fg-60, (4-aminoimidazo[1,5-a]pyrido[3,4-e]pyrazin-8-yl)((4aS,9bS)-7-(trifluoromethyl)-3,4,4a,9b-tetrahydrobenzofuro[3,2-b]pyridin-1(2H)-yl-2,2-d2)methanone] | 
 | ≤ 1 |  |  |  | 145 | Nc1nc2cnc(C(=O)N3CCC[C@@H]4Oc5cc(OC(F)(F)F)ccc5[C@@H]43)cc2n2cncc12 [Ff-341, (4-aminoimidazo[1,5-a]pyrido[3,4-e]pyrazin-8-yl)((4aS,9bS)-7-(trifluoromethoxy)-3,4,4a,9b-tetrahydrobenzofuro[3,2-b]pyridin-1(2H)-yl)methanone] | half-life ([2]; 0.25 mg/kg, IV 0.25 mg/Kg): 4.6 h; clearance ([2]; 0.25 mg/kg, IV 0.25 mg/Kg): 3.5 mL/min/kg; Vd ([2]; 0.25 mg/kg, IV 0.25 mg/Kg): 1.45 L/kg; bioavailability ([2]; 1.25 mg/kg, PO 1.25 mg/Kg): 99%
 | ≤ 1 |  |  |  | 118 | Nc1nc2cnc(C(=O)N3CCC[C@@H]4Oc5cc(C(F)(F)F)ccc5[C@@H]43)cc2n2cncc12 [Ff-110, (4-aminoimidazo[1,5-a]pyrido[3,4-e]pyrazin-8-yl)((4aS,9bS)-7-(trifluoromethyl)-3,4,4a,9b-tetrahydrobenzofuro[3,2-b]pyridin-1(2H)-yl)methanone] | 
85 | ≤ 1 | 4.6 | 7.33 | 2.45 |  | Nc1nc2cnc(C(=O)N3CCC[C@@H]4Oc5cc(C(F)(F)F)cc(F)c5[C@@H]43)cc2n2cncc12 (single isomer, unassigned) [Fg-53] | bioavailability ([2]; 1.66 mg/kg, PO 1.66 mg/Kg): 120%; half-life ([3]; IV 0.25 mg/Kg): 3.8 h; clearance ([3]; IV 0.25 mg/Kg): 6.33 mL/min/kg; Vd ([3]; IV 0.25 mg/Kg): 1.97 L/kg; bioavailability [3]: 73%
50 | ≤ 1 |  |  |  |  | Nc1nc2cnc(C(=O)N3CC4(CC4)C[C@@H]4Oc5cc(C(F)(F)F)ccc5[C@@H]43)cc2n2cncc12 [Ff-648, (4-aminoimidazo[1,5-a]pyrido[3,4-e]pyrazin-8-yl)((4aS,9bS)-7-(trifluoromethyl)-4a,9b-dihydro-2H-spiro[benzofuro[3,2-b]pyridine-3,1′-cyclopropan]-1(4H)-yl)methanone] | IC50 (hERG): 30000 nM
